# Data: ChEMBL document CHEMBL1152840, “Antileukotrienic phenethylamido derivatives of arylalkanoic acids in the treatment of ulcerative colitis” (Eur J Med Chem, 2009)
# Tests used:
# Mus musculus [1] = assay: Antiinflammatory activity against dextrane disodium sulfate-induced ulcerative colitis in BALB/c mouse assessed as diseased animal with stool consistency at 250 mg/kg administered 1 hr before dextrane disodium sulfate challenge; format: functional
# Mus musculus [2] = assay: Antiinflammatory activity against dextrane disodium sulfate-induced ulcerative colitis in BALB/c mouse assessed as diseased animal with rectal prolapse at 250 mg/kg administered 1 hr before dextrane disodium sulfate challenge; format: functional
# Mus musculus [3] = assay: Antiinflammatory activity in mouse assessed as inhibition of arachidonic acid-induced ear lobe edema at 200 mg/kg, po administered 1 hr before arachidonic acid challenge measured after 1 hr relative to untreated control; format: functional
# Mus musculus [4] = assay: Antiinflammatory activity against dextrane disodium sulfate-induced ulcerative colitis in BALB/c mouse assessed as length of colon at 250 mg/kg administered 1 hr before dextrane disodium sulfate challenge; format: functional
# Mus musculus [5] = assay: Antiinflammatory activity against dextrane disodium sulfate-induced ulcerative colitis in BALB/c mouse assessed as diseased animal with large intestine bleeding at 250 mg/kg administered 1 hr before dextrane disodium sulfate challenge; format: functional
# Mus musculus [6] = assay: Antiinflammatory activity in mouse assessed as inhibition of arachidonic acid-induced ear lobe hyperemia at 200 mg/kg, po administered 1 hr before arachidonic acid challenge measured after 1 hr relative to untreated control; format: functional
# [7] = Lipophilicity, log K by HPLC method; format: physicochemical
# [8] = Antileukotrienic activity in rat PMNC assessed as inhibition of Ca2+ ionophore A23187-induced LTB4 production by RIA; format: functional
# Mus musculus [9] = assay: Antiinflammatory activity against dextrane disodium sulfate-induced ulcerative colitis in BALB/c mouse assessed as diseased animal with small intestine bleeding at 250 mg/kg administered 1 hr before dextrane disodium sulfate challenge; format: functional
# Rattus norvegicus = assay: Antiinflammatory activity in rat assessed as inhibition of carrageenan-induced edema at 100 mg/kg relative to untreated control; format: functional
SMILES,Activity (Mus musculus [1]),Activity (Mus musculus [2]),inhibition in vivo at 200 mg/kg (Mus musculus [3]),Activity (Mus musculus [4]),Activity (Mus musculus [5]),inhibition in vivo at 200 mg/kg (Mus musculus [6]),log K [7],IC50 [8],Activity (Mus musculus [9]),inhibition in vivo at 100 mg/kg (Rattus norvegicus)
CC(CCc1ccc(OCCCOc2ccc(CC(=O)N(C)CCc3ccccc3)cc2)cc1)C(=O)O (stereo not given),100%,0%,16%,7.2 cm,60%,3.7%,0.636,7.5 µM,0%,–
CC(CCc1ccc(OCCCCOc2ccc(CC(=O)N(C)CCc3ccccc3)cc2)cc1)C(=O)O (stereo not given),0%,0%,22%,9.3 cm,60%,3.7%,0.752,10 µM,0%,56%
CN(CCc1ccccc1)C(=O)Cc1ccc(OCCOc2ccc(C(=O)CCC(=O)O)cc2)cc1,0%,0%,16%,9.2 cm,20%,3.6%,-0.089,20 µM,0%,38%
CN(CCc1ccccc1)C(=O)Cc1ccc(OCCOc2ccc(/C=C/C(=O)O)cc2)cc1,–,–,9.4%,–,–,3.4%,0.081,47 µM,–,43%
COc1cc(/C=C/C(=O)O)ccc1OCCOc1ccc(CC(=O)N(C)CCc2ccccc2)cc1,40%,0%,23%,7.2 cm,40%,0%,-0.061,–,0%,10%
CN(CCc1ccccc1)C(=O)Cc1ccc(OCCCOc2ccc(/C=C/C(=O)O)cc2)cc1,–,–,21%,–,–,3.7%,0.336,8.5 µM,–,13%
COc1cc(/C=C/C(=O)O)ccc1OCCCOc1ccc(CC(=O)N(C)CCc2ccccc2)cc1,–,–,16%,–,–,7.1%,0.166,–,–,20%
COc1cc(/C=C/C(=O)O)ccc1OCCCCOc1ccc(CC(=O)N(C)CCc2ccccc2)cc1,80%,0%,23%,6.8 cm,100%,0%,0.274,13 µM,0%,5.5%
CN(CCc1ccccc1)C(=O)Cc1ccc(OCCOc2ccc(CCCC(=O)O)cc2)cc1,80%,0%,12%,7.1 cm,100%,3.6%,0.231,9.5 µM,0%,36%
CN(CCc1ccccc1)C(=O)Cc1ccc(OCCCOc2ccc(CCCC(=O)O)cc2)cc1,–,–,13%,–,–,3.4%,0.451,12 µM,–,30%
CN(CCc1ccccc1)C(=O)Cc1ccc(OCCCCOc2ccc(CCCC(=O)O)cc2)cc1,60%,0%,22%,7.2 cm,100%,3.7%,0.6,16 µM,0%,38%
CC(CCc1ccc(OCCOc2ccc(CC(=O)N(C)CCc3ccccc3)cc2)cc1)C(=O)O (stereo not given),–,–,14%,–,–,3.7%,0.38,19 µM,–,14%
CC(C(=O)O)c1cccc2ccc(OCCCCOc3ccc(CC(=O)NCCc4ccccc4)cc3)cc12 (stereo not given),20%,0%,26%,7.5 cm,80%,3.3%,0.755,5.6 µM,0%,22%
CC(C(=O)O)c1ccc(OCCCOc2ccc(CC(=O)N(C)CCc3ccccc3)cc2)c(Cl)c1 (stereo not given),–,–,–,–,–,–,0.432,9.1 µM,–,–
CC(C(=O)O)c1ccc(OCCCCOc2ccc(CC(=O)N(C)CCc3ccccc3)cc2)c(Cl)c1 (stereo not given),0%,0%,37%,7.9 cm,60%,0%,0.554,5.6 µM,0%,44%
CN(CCc1ccccc1)C(=O)Cc1ccc(OCCCOc2ccc(CCC(=O)O)cc2)cc1,80%,0%,23%,6.8 cm,100%,3.7%,0.324,11 µM,0%,61%
CC(C(=O)O)c1cccc2ccc(OCCCOc3ccc(CC(=O)NCCc4ccccc4)cc3)cc12 (stereo not given),–,–,12%,–,–,0%,0.617,5.7 µM,–,30%
COc1cc(CCC(=O)O)ccc1OCCCOc1ccc(CC(=O)N(C)CCc2ccccc2)cc1,–,–,12%,–,–,7.4%,0.175,–,–,26%
COc1cc(CCC(=O)O)ccc1OCCCCOc1ccc(CC(=O)N(C)CCc2ccccc2)cc1,60%,0%,20%,7 cm,100%,11%,0.267,8.1 µM,0%,27%
CC(C(=O)O)c1ccc(OCCCOc2ccc(CC(=O)N(C)CCc3ccccc3)cc2)cc1 (stereo not given),–,–,19%,–,–,3.7%,0.344,100 µM,–,9.2%
CC(Cc1ccc(OCCCOc2ccc(CC(=O)N(C)CCc3ccccc3)cc2)cc1)C(=O)O (stereo not given),–,–,–,–,–,–,0.502,8.2 µM,–,–
CC(Cc1ccc(OCCCCOc2ccc(CC(=O)N(C)CCc3ccccc3)cc2)cc1)C(=O)O (stereo not given),–,–,10%,–,–,7.4%,0.604,10 µM,–,37%
CN(CCc1ccccc1)C(=O)Cc1ccc(OCCCCOc2ccc(CCC(=O)O)cc2)cc1,–,–,13%,–,–,3.4%,0.451,10 µM,–,30%
CC(C(=O)O)c1ccc(OCCCCOc2ccc(CC(=O)N(C)CCc3ccccc3)cc2)cc1 (stereo not given),100%,0%,19%,7.2 cm,100%,0%,0.458,31 µM,20%,63%
CN(CCc1ccccc1)C(=O)Cc1ccc(OCCCCOc2ccc(/C=C/C(=O)O)cc2)cc1,–,–,22%,–,–,6.7%,0.462,8.7 µM,–,20%
O=C(O)c1cc(/N=N/c2ccc(S(=O)(=O)Nc3ccccn3)cc2)ccc1O [SULFASALAZINE],53%,0%,–,9.1 cm,80%,–,–,–,0%,–
